Holding throughout (type): cell-based, Escherichia coli
The subject of one experiment is E. coli BL21 DE3. Briefly: Preliminary study: novobiocin tolerance after sodium decanoate addition. The settings on record: 2.5 mM sodium decanoate added to the medium. The source says:
This was taken as evidence that acrAB genes are induced with sodium decanoate addition and conferred resistance to novobiocin. Rosenberg, E. Y., et al., Molecular Microbiol. 48:1609-1619, (2003).

A further experiment relates to E. coli MG1655 ΔAcrAB. Briefly: Monatin excretion with 2.5 mM sodium decanoate, E. coli MG1655 ΔAcrAB with or without marA (24, 30, 72 h). As to conditions: n = 2.
In experiment [1] the test system is E. coli MG1655 ΔAcrAB 6-16::aspCproAproNde. The experiment in a line: AcrAB k.o. validation: growth (OD 600 nm) with novobiocin / sodium decanoate, knockout strain. The settings on record: sodium decanoate 2.5 mM; novobiocin 0 ppm. On the procedure: Single chloramphenicol-resistant colonies were purified by restreaking on appropriate selective media and single colonies were tested by PCR as previously described for the BW25113 knockout strains, to verify the presence of the emrB and acrAB knockouts. The effects of the emrB and acrAB knockouts on the EmrAB and AcrAB transporter systems respectively were determined by assessing the phenotype of the transport mutants using appropriate antibiotics and comparison to wild type control microorganisms as shown in Table 3.1 and Table 3.2 below.

The next experiment deals with E. coli MG1655. The experiment in a line: Monatin excretion with 2.5 mM sodium decanoate, E. coli MG1655 strains with pUC19, marA or baeR (30, 72 h). The source says:
The strain used for the experiment was E. coli MG1655: : aspC/proA/pProNde together with the marA gene from E. coli cloned into the pUC19 vector (GenBank/EMBL accession number L09137). The control strain was E. coli MG1655: : aspC/proA/pProNde along with the pUC19 vector. The marA gene was amplified from E. coli W3110 with PCR technology (known to one skilled in the art) using the primers E. coli MarASalIF-5′[…]3′ (SEQ ID NO. 24) and E. coli MarABamHIR-5′[…]3′ (SEQ ID NO. 25). For inoculum, the E. coli strains were grown overnight at 37° C. and 250 rpm in Luria-Bertani (“LB”) medium with 100 μg/mL ampicillin and 50 μg/mL kanamycin.
For the experimental treatments, Trp-1+glucose medium, a minimal medium that has been used for increased production of tryptophan in E. coli cells (Zeman, et al. Folia Microbiol. 35:200-204, (1990)), was prepared as follows. To 800 mL nanopure water the following reagents were added: 2 g (NH4)2SO4 and 13.6 g KH2PO4. The pH was adjusted to 7.0, the volume was increased to 948 mL, and the medium was autoclaved. Following sterilization, 0.2 g MgSO4.7H2O, 0.01 g CaCl2.2H2O, and 0.5 mg FeSO4.7H2O were added to the medium in a 1.8 mL volume followed by addition of 0.2 mL of Neidhardt's micronutrient solution. Neidhardt F. C., et al., “Culture medium for Enterobacteria,” J. Bacteriol. 119:736-746, (1974). Neidhardt's medium includes (per liter): 0.18 g (NH4)6(MO7)24.4H2O, 1.24 g H3BO3, 0.36 g CoCl2.6H2O, 0.12 g CuSO4 (anhydrous), 0.8 g MnCl2.4H2O, and 0.14 g ZnSO4.7H2O. A 50% glucose solution was prepared separately and sterile-filtered. Forty mL of glucose solution and 10 mL of 1 M 3-Morpholinopropanesulfonic acid (“MOPS”) buffer were added to the base medium (950 mL) for a 1 L final volume.
Conditions for the treatments included 250 rpm agitation throughout and 37° C. up to induction, then, 30° C. following induction. At an OD600 nm between 0.35-0.50, induction of the plasmid genes was initiated. At induction, 1.0 mM IPTG, 0.5% L-arabinose, 0.5 mM pyridoxine hydrochloride, and 0.2 mLs of Balch's vitamins were added. Additions of 10 g/L L-tryptophan, 10 g/L sodium pyruvate, 0.04 mM pyridoxal-5′-phosphate (“PLP”) and 0.2% Tween® 20 (polyoxyethylene 20-sorbitan monolaurate) were made 3.0 hours following induction. At 24 hours after inoculation, 10 g/L of sodium pyruvate was added to each flask again. Some treatments included 2.5 mM sodium decanoate addition at 3.0 hours following induction.
The strains used for the experiment were E. coli. MG1655 : : aspC/proA/pProNde in combination with either baeR or no insert in the pUC19 vector. The baeR gene was amplified from E. coli W3110 by using primers, E. coli baeRSalIF 5′[…]3′ (SEQ ID NO. 26) and E. coli baeRBamHIR 5′[…]3′ (SEQ ID NO. 27), which introduced SalI and BamHI sites at the end of the amplified fragment. The PCR fragment was cloned between the SalI and BamHI sites of the vector pUC19 (GenBank/EMBL accession number L09137). For inoculum, the E. coli strains were grown overnight at 37° C. and 250 rpm in Luria-Bertani (“LB”) medium with 100 μg/mL ampicillin and 50 μg/mL kanamycin.
For the experimental treatments, Trp-1+glucose medium, a minimal medium that has been used for increased production of tryptophan in E. coli cells (Zeman et al. Folia Microbiol. 35:200-204, (1990)), was prepared as follows. To 800 mL nanopure water the following reagents were added: 2 g (NE4)2SO4 and 13.6 g KH2PO4. The pH was adjusted to 7.0, the volume was increased to 948 mL, and the medium was autoclaved. Following sterilization, 0.2 g MgSO4.7H2O, 0.01 g CaCl2.2H2O, and 0.5 mg FeSO4.7H2O were a to the medium in a 1.8 mL volume followed by addition of 0.2 mL of Neidhardt's micronutrient solution. Neidhardt F. C., et al., “Culture medium for Enterobacteria,” J. Bacteriol. 119:736-746 (1974). Neidhardt's medium includes (per liter): 0.18 g (NH4)6(MO7)24.4H2l O, 1.24 g H3BO3, 0.36 g CoCl2.6H2O, 0.12 g CuSO4 (anhydrous), 0.8 g MnCl2.4H2O, and 0.14 g ZnSO4.7H2O. […]

Where [2] appears, read: ΔAcrAB AspC ProA pProNde del pUC19 (control).
Where [3] appears, read: E. coli MG1655 AspC ProA pProNde del BaeR pUC19, n = 2.
Setting [4] is: E. coli MG1655 AspC ProA pProNde del MarA pUC19, n = 2.
Where [5] appears, read: E. coli MG1655 aspC proA pProNde del pUC19 (control), n = 2.

Compound `CCCCCCCCCC(=O)[O-].[Na+]` [sodium decanoate] came in with a tolerance to novobiocin in the experiment on E. coli BL21 DE3 of 80 to 160 µg/mL. For the same compound, in the experiment with E. coli MG1655 ΔAcrAB (setting [2]), the “Mean monatin per dry cell weight, 24” value is given as 22.2 mg/g; the “Mean monatin per dry cell weight, 30” value is listed as 20.6 mg/g; the “Mean monatin per dry cell weight, 72” value is given as 62.6 mg/g. In the experiment with E. coli MG1655 ΔAcrAB (ΔAcrAB with marA insert), the “Mean monatin per dry cell weight, 24” value is 54.6 mg/g; the “Mean monatin per dry cell weight, 30” value was found to be 56.0 mg/g; the “Mean monatin per dry cell weight, 72” value amounted to 209.0 mg/g. In addition, the “OD 600 nm at 19 hours” value in experiment [1] was 0.885. For the same compound, in the experiment on E. coli MG1655 (setting [3]), the “Mean monatin per dry cell weight, 30 hours” value is 16.2 mg/g and the “Mean monatin per dry cell weight, 72 hours” value was 66.8 mg/g. In addition, in the experiment with E. coli MG1655 (setting [4]), the “Mean monatin per dry cell weight, 30 hours” value is recorded as 8.5 mg/g and the “Mean monatin per dry cell weight, 72 hours” value came to 51.9 mg/g. Further, in the experiment on E. coli MG1655 (setting [5]), the “Mean monatin per dry cell weight, 30 hours” value is listed as 2.4 mg/g and the “Mean monatin per dry cell weight, 72 hours” value was 2.7 mg/g.

The values are drawn from patent US8158389B2, “Products and methods for in vivo secretion of monatin” (priority 2005, dated 2012).
